From ChEMBL document CHEMBL4396909, “Evolution of HIV-1 reverse transcriptase and integrase dual inhibitors: Recent advances and developments” (Eur J Med Chem, 2019)

System: Human immunodeficiency virus 1
Assay: Antiviral activity against HIV-1 infected in HEK293 cells preincubated for 4 hrs with cell followed by viral infection measured after 24 hrs by luciferase reporter gene assay
Format: functional, organism-based
Details: Human immunodeficiency virus 1, HEK293

- IC50: 0.48 µM
Compound: O=C(O)C(=O)CC(=O)c1cc(OCc2ccccc2)cc(OCc2ccccc2)c1
